Test: Storage test at 60° C. and 68% relative humidity, vitamin A analysed by UPLC
Type: physicochemical
Settings: storage at 60° C. and 68% RH; 0.825 wt. % vitamin A palmitate in oil; FIGS. 1 to 7
Protocol: Palm oil (SUNIA), and vitamin A palmitate (Vitamin A Palmitate 1.7 MIU/g-DSM) were heated in an oven at 60°. Vitamin A palmitate was not held above 60° C. for longer than 5 minutes to avoid possible degradation. The oil was mixed with vitamin A palmitate in a 0.5 liter Schott bottle and then stirred for 10 minutes in a 50° C. water bath. Initial vitamin A palmitate content was 0.825% in oil (a vitamin A palmitate content of 0.165 wt. % in powdered bran). The total amount of lipid was 100 g. A quantity of 10 g of lipid containing vitamin A palmitate was then mixed with 40 g of powdered rice bran with or without phytic acid (Herba Ingredients) in a mortar during 5 minutes. […]
A quantity of 10 g of lipid containing 0.825 wt. % of vitamin A palmitate was mixed with 40 g of wheat bran in a mortar during 5 minutes. […]
A quantity of 10 g of lipid containing 0.825 wt. % of vitamin A palmitate was mixed with 40 g of maltodextrin DE21 in a mortar during 5 minutes. […]
A quantity of 10 g of lipid containing 0.825 wt. % of vitamin A palmitate and 1.87 g of iron pyrophosphate powder were mixed with 38.13 g of powdered rice bran (Herba Ingredients) in a mortar during 5 minutes. […]
For the storage tests, the crystallizing dishes were transferred into a climatic chamber regulated at 60° C. and 68% relative humidity, before being analyzed. […]

CCCCCCCCCCCCCCCC(=O)OC/C=C(C)/C=C/C=C(C)/C=C/C1=C(C)CCCC1(C)C [vitamin A palmitate, retinyl palmitate]
vitamin A stability (degradation curves): very sensitive to temperature and degrades fast
